Measurements: patent US20220305012A1, “L[…] TREATING SLEEP ISSUES” (EISAI R&D MANAGEMENT CO., LTD., priority 2019, published 2022)

Key:
Type in all cases: in vivo, human
[1] = test system: Subjects Having Insomnia Disorder; experiment: Example 2: latency to persistent sleep (LPS), polysomnography
Protocol: As used herein, the term “latency to persistent sleep”, abbreviated as “LPS.” means the minutes from lights off to the first epoch of 20 consecutive epochs (10 minutes) of non-wakefulness.
(§1) In some embodiments, a sleep parameter is determined objectively using polysomnography. Polysomnography is the monitoring of multiple electrophysiological parameters during sleep and generally includes measurement of EEG activity, electro-oculographic activity and electromyographic activity, as well as other measurements.
LPS—latency to persistent sleep: minutes from lights off to the first epoch of 20 consecutive epochs of non-wakefulness.
(§2) The treatment period lasted for 31 days. Subjects were randomized in a double-blind manner and received placebo, a tablet containing 5 mg of lemborexant, a tablet containing 10 mg of lemborexant, or a tablet containing 6.25 mg of zolpidem ER.
(§3) Within 5 minutes of the subject's mean habitual bedtime, study drug was administered and an overnight polysomnogram recording was initiated. At completion of the recording the following morning (Day 2), postural stability and cognitive performance were assessed. On the Day 2 evening, subjects returned to the clinic and a blood sample was collected before administering study drug, and then study drug was administered within 5 minutes of the subject's mean habitual bedtime. Again, a polysomnogram recording was initiated. The next morning (Day 3), postural stability and cognitive performance were assessed. A blood sample was also collected.
(§4) On Day 29, subjects returned to the clinic. Study drug was administered within 5 minutes of the subject's mean habitual bedtime and a polysomnogram recording was conducted. On the following morning (Day 30), postural stability and cognitive performance were assessed. After 1.5 hours of waketime, subjects rated their morning sleepiness level.
(§5) On the evening of Day 30, subjects returned to the clinic. A pre-dose blood sample was collected and study drug was again administered within 5 minutes of the subject's mean habitual bedtime. A polysomnogram recording was initiated. The following morning (Day 31), postural stability and cognitive performance were assessed and a blood sample was obtained. The ISI, FSS, EQ-5D-3L and PGI-Insomnia were administered. Blood and urine samples were collected for routine safety assessment. An electrocardiogram was performed, and vital signs and weight were assessed. The eC-SSRS was then administered to the subject. At 1.5 hours after waketime, subjects rated their morning sleepiness level.
The primary endpoint was to determine the change from baseline for mean latency to persistent sleep on days 29 and 30 of 5 mg or 10 mg lemborexant compared to placebo.

[2] = test system: Subjects Having Insomnia Disorder; experiment: Example 2: treatment-emergent adverse events
Protocol: Between 14 and 18 days after completion of the treatment period, subjects returned to the clinic for the end of study visit. The T-BWSQ and eC-SSRS were administered and routine safety assessments were conducted.
A subject who prematurely discontinued taking study drug was to return to the clinic as soon as practicable after discontinuing study drug. If the subject discontinued due to an adverse event, the adverse event must have been followed to resolution or for 2 weeks, whichever came first. Additionally, subjects who discontinued early underwent a urine drug test.

[3] = test system: Subjects Having Insomnia Disorder; experiment: Example 2: Cognitive Performance Assessment Battery; details: either dose, at either time point (FIGS. 11A-11D)
Protocol: FIG. 11A-FIG. 11D show the change from baseline (least squares mean) in the four domains of the Cognitive Performance Assessment Battery at Days 2/3 and Days 30/31 in patients treated with placebo, 6.25 mg of zolpidem, 5 mg of lemborexant, or 10 mg of lemborexant.
Subjects were provided with a sleep diary and trained on how to record entries. After subjects completed the sleep diary on 7 consecutive mornings, and provided that the subject was still eligible to participate in the study, they attended a second clinical meeting between 10 and 17 days before the randomization phase. […]
Within 5 minutes of the subject's mean habitual bedtime, study drug was administered and an overnight polysomnogram recording was initiated. At completion of the recording the following morning (Day 2), postural stability and cognitive performance were assessed. […] The next morning (Day 3), postural stability and cognitive performance were assessed. […]
On Day 29, subjects returned to the clinic. […] On the following morning (Day 30), postural stability and cognitive performance were assessed. […]
On the evening of Day 30, subjects returned to the clinic. […] The following morning (Day 31), postural stability and cognitive performance were assessed and a blood sample was obtained. […] An electrocardiogram was performed, and vital signs and weight were assessed. […]

[4] = test system: Subjects Having Insomnia Disorder; experiment: Example 2: total sleep time (TST), polysomnography
Protocol: as §1
TST—total sleep time: minutes of sleep from sleep onset until terminal awakening.
as §2, §3, §4, §5

Cc1ncc(OC[C@@]2(c3cccc(F)c3)C[C@H]2C(=O)Nc2ccc(F)cn2)c(C)n1 [Lemborexant, (1R,2S)-2-(((2,4-dimethylpyrimidin-5-yl)oxy)methyl)-2-(3-fluorophenyl)-N-(5-fluoropyridin-2-yl)cyclopropanecarboxamide]
LPS LSM treatment ratio: Lemborexant/Zolpidem ([1]; 5 mg vs zolpidem ER 6.25 mg, Days 1/2): 0.874 | LPS LSM treatment ratio: Lemborexant/Zolpidem ([1]; 5 mg vs zolpidem ER 6.25 mg, Days 29/30): 0.634 | LPS LSM treatment ratio: Active/Placebo ([1]; 5 mg, Days 1/2): 0.850 | LPS, Mean ([1]; 5 mg, Days 1/2): 28.27 min | LPS, Median ([1]; 5 mg, Days 1/2): 21.63 min | LPS LSM treatment ratio: Active/Placebo ([1]; 5 mg, Days 29/30): 0.773 | LPS, Mean ([1]; 5 mg, Days 29/30): 25.84 min | LPS, Median ([1]; 5 mg, Days 29/30): 18.75 min | LPS, Mean ([1]; 5 mg, Study Baseline): 44.86 min | LPS, Median ([1]; 5 mg, Study Baseline): 33.13 min | LPS Change from Study Baseline, Mean ([1]; 5 mg, at Days 1/2): -16.59 min | LPS Change from Study Baseline, Median ([1]; 5 mg, at Days 1/2): -10.00 min | LPS Change from Study Baseline, Mean ([1]; 5 mg, at Days 29/30): -19.53 min | LPS Change from Study Baseline, Median ([1]; 5 mg, at Days 29/30): -12.00 min | LPS LSM treatment ratio: Lemborexant/Zolpidem ([1]; 10 mg vs zolpidem ER 6.25 mg, Days 1/2): 0.818 | LPS LSM treatment ratio: Lemborexant/Zolpidem ([1]; 10 mg vs zolpidem ER 6.25 mg, Days 29/30): 0.594 | LPS LSM treatment ratio: Active/Placebo ([1]; 10 mg, Days 1/2): 0.795 | LPS, Mean ([1]; 10 mg, Days 1/2): 25.13 min | LPS, Median ([1]; 10 mg, Days 1/2): 21.75 min | LPS LSM treatment ratio: Active/Placebo ([1]; 10 mg, Days 29/30): 0.723 | LPS, Mean ([1]; 10 mg, Days 29/30): 22.75 min | LPS, Median ([1]; 10 mg, Days 29/30): 19.25 min | LPS, Mean ([1]; 10 mg, Study Baseline): 44.61 min | LPS, Median ([1]; 10 mg, Study Baseline): 38.50 min | LPS Change from Study Baseline, Mean ([1]; 10 mg, at Days 1/2): -19.48 min | LPS Change from Study Baseline, Median ([1]; 10 mg, at Days 1/2): -10.50 min | LPS Change from Study Baseline, Mean ([1]; 10 mg, at Days 29/30): -21.46 min | LPS Change from Study Baseline, Median ([1]; 10 mg, at Days 29/30): -16.25 min | mean latency to persistent sleep ([1]; all lemborexant treatment groups, relative to baseline, placebo group, and zolpidem group (Table 13)): reduced | safety and tolerability (incidence of adverse events) ([2]; Example 2 (Table 29)): safe and well-tolerated | Congenital anomaly/birth defect ([2]; Lemborexant 5 mg (N = 266)): 0 n (%) | Deaths ([2]; Lemborexant 5 mg (N = 266)): 0 n (%) | Important medical events ([2]; Lemborexant 5 mg (N = 266)): 1 (0.3) n (%) | Life threatening ([2]; Lemborexant 5 mg (N = 266)): 0 n (%) | Other SAEs ([2]; Lemborexant 5 mg (N = 266)): 2 (0.8) n (%) | Persistent or significant disability or incapacity ([2]; Lemborexant 5 mg (N = 266)): 0 n (%) | Requires inpatient hospitalization or prolongation of existing hospitalization ([2]; Lemborexant 5 mg (N = 266)): 2 (0.8) n (%) | Serious TEAEs ([2]; Lemborexant 5 mg (N = 266)): 2 (0.8) n (%) | Severe TEAEs ([2]; Lemborexant 5 mg (N = 266)): 1 (0.4) n (%) | TEAEs ([2]; Lemborexant 5 mg (N = 266)): 74 (27.8) n (%) | TEAEs leading to study dose reduced ([2]; Lemborexant 5 mg (N = 266)): 0 n (%) | TEAEs leading to study drug dose adjustment ([2]; Lemborexant 5 mg (N = 266)): 3 (1.1) n (%) | TEAEs leading to study drug interrupted ([2]; Lemborexant 5 mg (N = 266)): 1 (0.4) n (%) | TEAEs leading to study drug withdrawal ([2]; Lemborexant 5 mg (N = 266)): 2 (0.8) n (%) | Treatment-related TEAEs ([2]; Lemborexant 5 mg (N = 266)): 30 (11.3) n (%) | Congenital anomaly/birth defect ([2]; Lemborexant 10 mg (N = 268)): 0 n (%) | Deaths ([2]; Lemborexant 10 mg (N = 268)): 0 n (%) | Important medical events ([2]; Lemborexant 10 mg (N = 268)): 0 n (%) | Life threatening ([2]; Lemborexant 10 mg (N = 268)): 0 n (%) | Other SAEs ([2]; Lemborexant 10 mg (N = 268)): 0 n (%) | Persistent or significant disability or incapacity ([2]; Lemborexant 10 mg (N = 268)): 0 n (%) | Requires inpatient hospitalization or prolongation of existing hospitalization ([2]; Lemborexant 10 mg (N = 268)): 0 n (%) | Serious TEAEs ([2]; Lemborexant 10 mg (N = 268)): 0 n (%) | Severe TEAEs ([2]; Lemborexant 10 mg (N = 268)): 2 (0.7) n (%) | TEAEs ([2]; Lemborexant 10 mg (N = 268)): 82 (30.6) n (%) | TEAEs leading to study dose reduced ([2]; Lemborexant 10 mg (N = 268)): 0 n (%) | TEAEs leading to study drug dose adjustment ([2]; Lemborexant 10 mg (N = 268)): 3 (1.1) n (%) | TEAEs leading to study drug interrupted ([2]; Lemborexant 10 mg (N = 268)): 0 n (%) | TEAEs leading to study drug withdrawal ([2]; Lemborexant 10 mg (N = 268)): 3 (1.1) n (%) | Treatment-related TEAEs ([2]; Lemborexant 10 mg (N = 268)): 39 (14.6) n (%) | cognitive tests compared with placebo [3]: neither dose of lemborexant differed from placebo | Total Sleep Time, Change from Study Baseline, Mean (SD) ([4]; Days 1/2, Lemborexant 5 mg): 65.22 (46.695) | Total Sleep Time, Change from Study Baseline, Median ([4]; Days 1/2, Lemborexant 5 mg): 59.50 | Total Sleep Time, Mean (SD) ([4]; Days 1/2, Lemborexant 5 mg): 393.22 (40.346) | Total Sleep Time, Median ([4]; Days 1/2, Lemborexant 5 mg): 400.63 | Total Sleep Time, Change from Study Baseline, Mean (SD) ([4]; Days 1/2, Lemborexant 10 mg): 79.58 (47.350) | Total Sleep Time, Change from Study Baseline, Median ([4]; Days 1/2, Lemborexant 10 mg): 74.25 | Total Sleep Time, Mean (SD) ([4]; Days 1/2, Lemborexant 10 mg): 404.65 (36.593) | Total Sleep Time, Median ([4]; Days 1/2, Lemborexant 10 mg): 411.50 | Total Sleep Time, Change from Study Baseline, LSM treatment difference: Lemborexant-Zolpidem ([4]; Days 29/30, Lemborexant 5 mg): 19.41 (3.457) | Total Sleep Time, Change from Study Baseline, Mean (SD) ([4]; Days 29/30, Lemborexant 5 mg): 61.99 (46.817) | Total Sleep Time, Change from Study Baseline, Median ([4]; Days 29/30, Lemborexant 5 mg): 56.50 | Total Sleep Time, Mean (SD) ([4]; Days 29/30, Lemborexant 5 mg): 389.97 (42.437) | Total Sleep Time, Median ([4]; Days 29/30, Lemborexant 5 mg): 399.63 | Total Sleep Time, Change from Study Baseline, LSM treatment difference: Lemborexant-Zolpidem ([4]; Days 29/30, Lemborexant 10 mg): 24.10 (3.456) | Total Sleep Time, Change from Study Baseline, Mean (SD) ([4]; Days 29/30, Lemborexant 10 mg): 67.86 (52.117) | Total Sleep Time, Change from Study Baseline, Median ([4]; Days 29/30, Lemborexant 10 mg): 65.13 | Total Sleep Time, Mean (SD) ([4]; Days 29/30, Lemborexant 10 mg): 393.16 (42.827) | Total Sleep Time, Median ([4]; Days 29/30, Lemborexant 10 mg): 400.88 | mean total sleep time ([4]; all lemborexant treatment groups, relative to baseline, placebo and zolpidem treatment groups (Table 17)): increased
